Experimental data taken from US20240116985A1, “STAPLED PEPTIDES AND METHODS THEREOF” (priority 2020, published 2024).
pIC50: −log10 of the molar value.

These compounds were tested against T1, full-length beta-Catenin (Uniprot ID P35222) (Homo sapiens, UniProt P35222) (assay: Fluorescence polarization IC50 (beta-catenin / 5FAM-TCF4 10-53 competition)). Conditions: fluorescence polarization; read-out: beta-Catenin FP IC50.
T1 construct: 10 nM full-length beta-Catenin (Uniprot ID P35222)
T1 sequence (P35222 1-781): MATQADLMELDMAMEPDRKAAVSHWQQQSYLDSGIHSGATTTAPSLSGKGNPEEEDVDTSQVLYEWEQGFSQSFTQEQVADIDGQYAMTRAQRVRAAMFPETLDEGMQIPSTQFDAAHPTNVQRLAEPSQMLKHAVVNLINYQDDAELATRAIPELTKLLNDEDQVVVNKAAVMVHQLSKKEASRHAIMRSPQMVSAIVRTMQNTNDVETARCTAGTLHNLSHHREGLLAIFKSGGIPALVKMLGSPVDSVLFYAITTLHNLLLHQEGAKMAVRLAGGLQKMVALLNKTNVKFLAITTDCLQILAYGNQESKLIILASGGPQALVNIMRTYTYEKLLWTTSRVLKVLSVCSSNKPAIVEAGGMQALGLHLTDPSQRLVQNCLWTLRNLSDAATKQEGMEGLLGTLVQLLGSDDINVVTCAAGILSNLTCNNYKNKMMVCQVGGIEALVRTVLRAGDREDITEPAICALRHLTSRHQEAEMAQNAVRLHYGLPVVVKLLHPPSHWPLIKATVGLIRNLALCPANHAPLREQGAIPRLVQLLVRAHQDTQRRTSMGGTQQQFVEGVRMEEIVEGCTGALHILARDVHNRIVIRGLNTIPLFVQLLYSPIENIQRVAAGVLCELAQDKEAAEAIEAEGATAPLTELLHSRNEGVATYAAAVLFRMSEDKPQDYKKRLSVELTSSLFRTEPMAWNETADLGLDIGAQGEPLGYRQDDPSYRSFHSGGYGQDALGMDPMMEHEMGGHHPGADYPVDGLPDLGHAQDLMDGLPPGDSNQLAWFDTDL
Assay type: binding

Row | SMILES | pIC50
1 | CC(=O)N1CCC[C@]12CC=CCCCC1(CCCC=CCCCOC(=O)N3CC[C@@](C(=O)N[C@@H](Cc4ccsc4)C(=O)N[C@@H](Cc4csc5ccccc45)C(=O)N[C@@H](CCC(N)=O)C(N)=O)(C3)NC(=O)[C@H](CC(C)C)NC(=O)[C@H](Cc3ccccc3)NC(=O)[C@H](CCCN3CCN(C)CC3)NC(=O)[C@H](C)NC(=O)[C@H](CC(=O)O)NC(=O)[C@H](CC(=O)O)NC1=O)NC(=O)[C@H](CC(C)(C)C)NC(=O)[C@H](CC(=O)O)NC2=O (stereo partly drawn) [I-1503, Ac-PL3-Asp-Npg-B5-Asp-Asp-Ala-MePpzNva-Phe-Leu-PyrS2-3Thi-BztA-Gln-NH2] | 7.42
2 | CC(=O)N1CCC[C@H]1C(=O)N[C@@H](CC(=O)O)C(=O)N[C@@H](CC(C)(C)C)C(=O)N[C@]1(C)CC=CCCCOC(=O)N2CC[C@@](C(=O)N[C@@H](Cc3ccsc3)C(=O)N[C@@H](Cc3csc4ccccc34)C(=O)N[C@@H](CCC(N)=O)C(N)=O)(C2)NC(=O)[C@H](CC(C)C)NC(=O)[C@H](Cc2ccccc2)NC(=O)[C@H](C)NC(=O)[C@H](C)NC(=O)[C@H](CC(=O)O)NC(=O)[C@H](CC(=O)O)NC1=O [I-1990, Ac-Pro-Asp-Npg-R3-Asp-Asp-Ala-Ala-Phe-Leu-PyrS2-3Thi-BztA-Gln-NH2] | 6.23
3 | CC(=O)N1CCC[C@]12CC=CCCCC1(CCCC=CCCCOC(=O)N3CC[C@@](C(=O)N[C@@H](Cc4ccccc4)C(=O)N[C@@H](Cc4csc5ccccc45)C(=O)N[C@@H](CCC(N)=O)C(N)=O)(C3)NC(=O)[C@H](CC(C)C)NC(=O)[C@H](Cc3ccc(-c4cccnc4)cc3)NC(=O)[C@H](C)NC(=O)[C@H](C)NC(=O)[C@H](CC(=O)O)NC(=O)[C@H](CC(=O)O)NC1=O)NC(=O)[C@H](CC(C)(C)C)NC(=O)[C@H](CC(=O)O)NC2=O (stereo partly drawn) [I-1490, Ac-PL3-Asp-Npg-B5-Asp-Asp-Ala-Ala-[3Py]4SF-Leu-PyrS2-Phe-BztA-Gln-NH2] | 6.65
4 | CC(=O)N1CCC[C@]12CCCCCCC1(CCCCCCCCOC(=O)N3CC[C@@](C(=O)N[C@@H](Cc4ccsc4)C(=O)N[C@@H](Cc4csc5ccccc45)C(=O)N[C@H](C(N)=O)[C@@H](C)O)(C3)NC(=O)[C@H](CC(C)C)NC(=O)[C@H](Cc3ccccc3)NC(=O)[C@H](C)NC(=O)[C@H](C)NC(=O)[C@H](CN(CC(=O)O)CC(F)(F)F)NC(=O)[C@H](CC(=O)O)NC1=O)NC(=O)[C@H](CC(C)(C)C)NC(=O)[C@H](CC(=O)O)NC2=O (stereo partly drawn) [I-1716, Ac-PL3-Asp-Npg-B5-Asp-TfeGA-Ala-Ala-Phe-Leu-PyrS2-3Thi-BztA-Thr-NH2] | 6.65
5 | CC(=O)N1CCC[C@]12CC=CCCCC1(CCCC=CCCOC(=O)N3CC[C@@](C(=O)N[C@@H](Cc4ccsc4)C(=O)N[C@@H](Cc4csc5ccccc45)C(=O)N[C@@H](CCC(N)=O)C(N)=O)(C3)NC(=O)[C@H](CC(C)C)NC(=O)[C@H](Cc3ccccc3)NC(=O)[C@H](C)NC(=O)[C@H](C)NC(=O)[C@H](CC(=O)O)NC(=O)[C@H](CC(=O)O)NC1=O)NC(=O)[C@H](CC(C)(C)C)NC(=O)[C@H](CC(=O)O)NC2=O (stereo partly drawn) [I-1814, Ac-PL3-Asp-Npg-B5-Asp-Asp-Ala-Ala-Phe-Leu-PyrS1-3Thi-BztA-Gln-NH2] | 6.72
6 | CC(=O)N1CCC[C@]12CCCCCCC1(CCCCCCCCOC(=O)N3CC[C@@](C(=O)N[C@@H](Cc4ccsc4)C(=O)N[C@@H](Cc4csc5ccccc45)C(=O)N[C@@H](CC(C)C)C(N)=O)(C3)NC(=O)[C@H]([C@@H](C)O)NC(=O)[C@H](Cc3ccccc3)NC(=O)[C@H](C)NC(=O)[C@H](CCCCNC(C)C)NC(=O)[C@H](CN(CC(=O)O)CC(F)(F)F)NC(=O)[C@H](CC(=O)O)NC1=O)NC(=O)[C@H](CC(C)(C)C)NC(=O)[C@H](CC(=O)O)NC2=O (stereo partly drawn) [I-1766, Ac-PL3-Asp-Npg-B5-Asp-TfeGA-iPrLys-Ala-Phe-Thr-PyrS2-3Thi-BztA-Leu-NH2] | 6.57
7 | CC(=O)N1CCC[C@]12CC=CCCC1(CCC=CCCCCOC(=O)N3CC[C@@](C(=O)N[C@@H](Cc4ccsc4)C(=O)N[C@@H](Cc4csc5ccccc45)C(=O)N[C@@H](CCC(N)=O)C(N)=O)(C3)NC(=O)[C@H](CC(C)C)NC(=O)[C@H](Cc3ccccc3)NC(=O)[C@H](C)NC(=O)[C@H](C)NC(=O)[C@H](CC(=O)O)NC(=O)[C@H](CC(=O)O)NC1=O)NC(=O)[C@H](CC(C)(C)C)NC(=O)[C@H](CC(=O)O)NC2=O (stereo partly drawn) [I-1973, Ac-PL3-Asp-Npg-B4-Asp-Asp-Ala-Ala-Phe-Leu-PyrS3-3Thi-BztA-Gln-NH2] | 6.10
8 | CC(=O)N1CCC[C@]12CC=CCCCC1(CCCC=CCCCOC(=O)N3CC[C@@](C(=O)N[C@@H](Cc4ccccc4)C(=O)N[C@@H](Cc4c[nH]c5ccccc45)C(=O)N[C@@H](CCC(N)=O)C(N)=O)(C3)NC(=O)[C@H](CC(C)C)NC(=O)[C@H](Cc3ccccc3)NC(=O)[C@H](C)NC(=O)[C@H](C)NC(=O)[C@H](CC(=O)O)NC(=O)[C@H](CC(=O)O)NC1=O)NC(=O)[C@H](CC(C)C)NC(=O)[C@H](CC(=O)O)NC2=O (stereo partly drawn) [I-1811, Ac-PL3-Asp-Leu-B5-Asp-Asp-Ala-Ala-Phe-Leu-PyrS2-Phe-Trp-Gln-NH2] | 6.81
9 | CC(=O)N1CCC[C@]12CCCCCCC1(CCCCCCCCOC(=O)N3CC[C@@](C(=O)N[C@@H](Cc4ccsc4)C(=O)N[C@@H](Cc4csc5ccccc45)C(=O)N[C@@H](CC(C)C)C(N)=O)(C3)NC(=O)[C@H](CC(C)C)NC(=O)[C@H](Cc3ccccc3)NC(=O)[C@H](C)NC(=O)[C@H](CCCCNC(C)C)NC(=O)[C@H](CN(CC(=O)O)CC(F)(F)F)NC(=O)[C@H](CC(=O)O)NC1=O)NC(=O)[C@H](CC(C)(C)C)NC(=O)[C@H](CC(=O)O)NC2=O (stereo partly drawn) [I-1765, Ac-PL3-Asp-Npg-B5-Asp-TfeGA-iPrLys-Ala-Phe-Leu-PyrS2-3Thi-BztA-Leu-NH2] | 6.18
10 | CC(=O)N1CCC[C@]12CC=CCCCC1(CCCC=CCCCOC(=O)N3CC[C@@](C(=O)N[C@@H](Cc4ccsc4)C(=O)N[C@@H](Cc4csc5ccccc45)C(=O)N[C@@H](CCC(N)=O)C(N)=O)(C3)NC(=O)[C@H](CC(C)C)NC(=O)[C@H](Cn3cc(CN4CCOCC4)nn3)NC(=O)[C@H](C)NC(=O)[C@H](C)NC(=O)[C@H](CN(CC(=O)O)CC(F)(F)F)NC(=O)[C@H](CC(=O)O)NC1=O)NC(=O)[C@H](CC(C)(C)C)NC(=O)[C@H](CC(=O)O)NC2=O (stereo partly drawn) [I-1859, Ac-PL3-Asp-Npg-B5-Asp-TfeGA-Ala-Ala-[MorphCH2]TriAzDap-Leu-PyrS2-3Thi-BztA-Gln-NH2] | 5.96
11 | CC(=O)N1CCC[C@]12CC=CCCCC1(CCCC=CCCCOC(=O)N3CC[C@@](C(=O)N[C@@H](Cc4ccsc4)C(=O)N[C@@H](Cc4csc5ccccc45)C(=O)N[C@@H](CCC(N)=O)C(N)=O)(C3)NC(=O)[C@H](CC(N)=O)NC(=O)[C@H](Cc3ccccc3)NC(=O)[C@H](C)NC(=O)[C@H](C)NC(=O)[C@H](CCCNC(=N)N)NC(=O)[C@H](CC(N)=O)NC1=O)NC(=O)[C@H](CC(C)(C)C)NC(=O)[C@H](CC(=O)O)NC2=O (stereo partly drawn) [I-1892, Ac-PL3-Asp-Npg-B5-Asn-Arg-Ala-Ala-Phe-Asn-PyrS2-3Thi-BztA-Gln-NH2] | 5.85
12 | CC(=O)N1CCC[C@]12CC=CCCCC1(CCCC=CCCCOC(=O)N3CC[C@@](C(=O)N[C@@H](Cc4ccsc4)C(=O)N[C@@H](Cc4c[nH]c5cccc(Cl)c45)C(=O)N[C@@H](CCC(N)=O)C(N)=O)(C3)NC(=O)[C@H](CC(N)=O)NC(=O)[C@H](Cc3ccccc3)NC(=O)[C@H](C)NC(=O)[C@H](C)NC(=O)[C@H](CC(=O)O)NC(=O)[C@H](CC(=O)O)NC1=O)NC(=O)[C@H](CC(C)(C)C)NC(=O)[C@H](CC(=O)O)NC2=O (stereo partly drawn) [I-2176, Ac-PL3-Asp-Npg-B5-Asp-Asp-Ala-Ala-Phe-Asn-PyrS2-3Thi-4C1W-Gln-NH2] | 7.06
13 | CC(=O)N1CCC[C@]12CC=CCCCC1(CCCC=CCCCOC(=O)N3CC[C@@](C(=O)N[C@@H](Cc4ccsc4)C(=O)N[C@@H](Cc4csc5ccccc45)C(=O)N[C@@H](CCC(N)=O)C(N)=O)(C3)NC(=O)[C@H](CC(C)C)NC(=O)[C@H](Cc3ccccc3)NC(=O)[C@H](C)NC(=O)[C@H](C)NC(=O)[C@H](CC(=O)O)NC(=O)[C@H](CC(=O)O)NC1=O)NC(=O)[C@H](CC(C)(C)C)NC(=O)[C@H](CCC(N)=O)NC2=O (stereo partly drawn) [I-1225, Ac-PL3-Gln-Npg-B5-Asp-Asp-Ala-Ala-Phe-Leu-PyrS2-3Thi-BztA-Gln-NH2] | 6.52
14 | CC(=O)N1CCC[C@]12CC=CCCCC1(CCCC=CCCCOC(=O)N3CC[C@@](C(=O)N[C@@H](Cc4ccsc4)C(=O)N[C@@H](Cc4csc5ccccc45)C(=O)N[C@@H](CCC(N)=O)C(N)=O)(C3)NC(=O)[C@H](CC(N)=O)NC(=O)[C@H](Cc3ccccc3)NC(=O)[C@H](C)NC(=O)[C@H](C)NC(=O)[C@H]([C@@H](C)O)NC(=O)[C@H](CC(N)=O)NC1=O)NC(=O)[C@H](CC1CCCCC1)NC(=O)[C@H](CC(=O)O)NC2=O (stereo partly drawn) [I-1884, Ac-PL3-Asp-Cha-B5-Asn-Thr-Ala-Ala-Phe-Asn-PyrS2-3Thi-BztA-Gln-NH2] | 6.60
